How the values were obtained:
[1] = compound: NC(=O)CCCCC1CCSS1 [lipoamide]; assay: thermal stability z-score vs DMSO; higher = more thermally stabilized by treatment; details: HeLa, lipoamide concentration 100 µM
Method: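 Cellular thermal proteome profiling in HeLa cells. Cells were treated with 100 µM lipoamide for 1 h, with or without 1 mM arsenate for a further 1 h, then heated to ten temperatures (37-66.3 °C), and soluble protein was quantified by TMT mass spectrometry relative to 0.1% DMSO controls. The thermal stability score (sum of log2 fold changes minus the abundance score) was transformed to a z-score; mean of n = 3 experiments.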

[2] = compound: O=[As]([O-])(O)O.[K+] [potassium arsenate]; assay: as above; details: HeLa; arsenate concentration 1 mM
Method: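 Cellular thermal proteome profiling in HeLa cells treated with 1 mM arsenate for 1 h (DMSO pretreatment), heated to ten temperatures (37-66.3 °C). Soluble protein was quantified by TMT mass spectrometry relative to DMSO controls; the thermal stability score was transformed to a z-score; mean of n = 3 experiments.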

[3] = arsenate co-treatment: 1 mM arsenate 1 h
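Also: each temperature applied for 3 min, abundance score taken as mean log2 fold change at the two lowest temperatures, z-score obtained by mean subtraction and division by SD.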

Chain of UniProt Q9Y296 (Q9Y296 whole entry): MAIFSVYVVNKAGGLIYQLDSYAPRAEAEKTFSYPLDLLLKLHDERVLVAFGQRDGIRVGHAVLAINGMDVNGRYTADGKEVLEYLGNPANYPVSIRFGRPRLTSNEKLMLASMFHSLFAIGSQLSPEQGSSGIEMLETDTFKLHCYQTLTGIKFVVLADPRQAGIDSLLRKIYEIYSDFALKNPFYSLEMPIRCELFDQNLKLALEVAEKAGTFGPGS
Chain of UniProt P48553 (P48553 whole entry): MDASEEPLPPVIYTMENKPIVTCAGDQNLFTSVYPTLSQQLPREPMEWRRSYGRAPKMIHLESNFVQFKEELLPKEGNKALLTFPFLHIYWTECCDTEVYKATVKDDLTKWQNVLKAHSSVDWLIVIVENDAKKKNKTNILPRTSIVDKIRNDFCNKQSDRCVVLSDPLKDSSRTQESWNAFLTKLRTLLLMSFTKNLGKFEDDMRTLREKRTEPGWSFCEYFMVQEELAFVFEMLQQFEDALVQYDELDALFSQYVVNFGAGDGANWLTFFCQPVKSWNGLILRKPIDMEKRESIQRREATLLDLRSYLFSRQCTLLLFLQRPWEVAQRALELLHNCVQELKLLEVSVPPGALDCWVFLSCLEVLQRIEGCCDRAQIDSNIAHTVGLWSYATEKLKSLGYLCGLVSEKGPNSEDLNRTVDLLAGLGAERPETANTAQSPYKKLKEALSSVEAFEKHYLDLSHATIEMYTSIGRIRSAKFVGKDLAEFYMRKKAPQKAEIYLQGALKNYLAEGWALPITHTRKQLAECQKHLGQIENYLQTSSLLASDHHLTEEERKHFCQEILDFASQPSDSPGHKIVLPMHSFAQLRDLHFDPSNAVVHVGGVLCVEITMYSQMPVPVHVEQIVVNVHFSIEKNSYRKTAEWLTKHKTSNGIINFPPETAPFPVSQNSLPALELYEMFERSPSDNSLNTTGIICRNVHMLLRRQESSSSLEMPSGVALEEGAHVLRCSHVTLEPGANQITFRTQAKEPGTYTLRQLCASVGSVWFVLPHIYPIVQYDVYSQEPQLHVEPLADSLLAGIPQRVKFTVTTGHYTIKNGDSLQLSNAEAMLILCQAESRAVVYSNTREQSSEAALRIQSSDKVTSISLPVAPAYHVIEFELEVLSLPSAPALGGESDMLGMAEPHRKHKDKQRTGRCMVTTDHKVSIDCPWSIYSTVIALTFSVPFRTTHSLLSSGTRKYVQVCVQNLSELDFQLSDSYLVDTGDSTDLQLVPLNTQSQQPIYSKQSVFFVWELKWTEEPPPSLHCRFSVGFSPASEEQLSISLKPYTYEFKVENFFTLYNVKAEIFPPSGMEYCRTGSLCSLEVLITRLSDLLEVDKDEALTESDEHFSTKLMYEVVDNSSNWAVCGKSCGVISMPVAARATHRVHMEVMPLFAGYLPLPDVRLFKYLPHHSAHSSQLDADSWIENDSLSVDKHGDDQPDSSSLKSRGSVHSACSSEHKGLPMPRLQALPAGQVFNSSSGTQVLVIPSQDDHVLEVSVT
Chain of UniProt Q9ULW0 (Q9ULW0 whole entry): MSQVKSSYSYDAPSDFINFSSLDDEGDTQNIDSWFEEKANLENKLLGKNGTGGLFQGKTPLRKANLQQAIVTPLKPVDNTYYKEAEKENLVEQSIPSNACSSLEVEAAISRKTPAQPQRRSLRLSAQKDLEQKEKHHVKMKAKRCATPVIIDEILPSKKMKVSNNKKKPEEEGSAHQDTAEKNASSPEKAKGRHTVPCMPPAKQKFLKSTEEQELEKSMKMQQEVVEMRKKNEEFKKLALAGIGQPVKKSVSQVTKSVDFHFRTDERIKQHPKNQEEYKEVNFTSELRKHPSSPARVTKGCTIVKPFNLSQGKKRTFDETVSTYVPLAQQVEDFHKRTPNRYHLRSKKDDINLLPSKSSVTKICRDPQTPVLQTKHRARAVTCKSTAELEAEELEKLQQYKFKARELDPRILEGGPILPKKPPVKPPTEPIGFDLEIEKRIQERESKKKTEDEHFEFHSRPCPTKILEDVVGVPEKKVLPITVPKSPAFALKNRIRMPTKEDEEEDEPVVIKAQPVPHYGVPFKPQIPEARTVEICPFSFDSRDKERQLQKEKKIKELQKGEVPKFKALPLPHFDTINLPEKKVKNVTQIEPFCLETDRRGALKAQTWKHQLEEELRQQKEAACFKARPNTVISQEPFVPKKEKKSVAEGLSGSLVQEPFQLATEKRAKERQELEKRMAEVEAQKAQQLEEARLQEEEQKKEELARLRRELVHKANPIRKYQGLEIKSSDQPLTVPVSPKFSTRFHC
Chain of UniProt Q96Q05 (Q96Q05 whole entry): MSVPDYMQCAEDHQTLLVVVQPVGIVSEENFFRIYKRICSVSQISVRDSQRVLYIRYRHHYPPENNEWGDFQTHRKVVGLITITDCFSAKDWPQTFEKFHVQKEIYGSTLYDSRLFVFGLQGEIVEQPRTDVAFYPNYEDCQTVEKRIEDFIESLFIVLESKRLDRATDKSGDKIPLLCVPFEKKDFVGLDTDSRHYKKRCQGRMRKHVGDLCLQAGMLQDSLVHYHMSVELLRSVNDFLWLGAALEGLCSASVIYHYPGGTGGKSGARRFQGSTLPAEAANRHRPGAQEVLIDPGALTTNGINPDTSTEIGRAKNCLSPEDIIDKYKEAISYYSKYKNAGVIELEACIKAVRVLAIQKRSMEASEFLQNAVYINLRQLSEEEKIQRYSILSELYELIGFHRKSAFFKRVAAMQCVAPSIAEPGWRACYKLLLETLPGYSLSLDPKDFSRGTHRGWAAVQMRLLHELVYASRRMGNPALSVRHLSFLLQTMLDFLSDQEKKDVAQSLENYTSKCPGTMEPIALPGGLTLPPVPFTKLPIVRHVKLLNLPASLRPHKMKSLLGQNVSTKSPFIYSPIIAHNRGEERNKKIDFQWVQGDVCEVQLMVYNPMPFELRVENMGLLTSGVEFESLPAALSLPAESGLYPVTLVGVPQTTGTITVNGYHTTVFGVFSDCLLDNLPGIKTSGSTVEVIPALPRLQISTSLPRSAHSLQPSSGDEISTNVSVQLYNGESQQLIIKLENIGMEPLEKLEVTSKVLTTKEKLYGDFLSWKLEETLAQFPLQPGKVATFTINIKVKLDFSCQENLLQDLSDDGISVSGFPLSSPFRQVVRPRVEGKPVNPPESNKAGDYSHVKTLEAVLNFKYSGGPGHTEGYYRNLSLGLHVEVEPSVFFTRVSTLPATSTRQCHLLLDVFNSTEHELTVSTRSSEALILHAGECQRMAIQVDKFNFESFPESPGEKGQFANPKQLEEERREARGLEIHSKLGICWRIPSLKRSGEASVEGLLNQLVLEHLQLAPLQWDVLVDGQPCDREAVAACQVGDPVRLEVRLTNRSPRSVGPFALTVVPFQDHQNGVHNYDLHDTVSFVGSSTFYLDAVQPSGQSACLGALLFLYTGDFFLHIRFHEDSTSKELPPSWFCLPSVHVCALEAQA
Chain of UniProt P51580 (P51580 whole entry): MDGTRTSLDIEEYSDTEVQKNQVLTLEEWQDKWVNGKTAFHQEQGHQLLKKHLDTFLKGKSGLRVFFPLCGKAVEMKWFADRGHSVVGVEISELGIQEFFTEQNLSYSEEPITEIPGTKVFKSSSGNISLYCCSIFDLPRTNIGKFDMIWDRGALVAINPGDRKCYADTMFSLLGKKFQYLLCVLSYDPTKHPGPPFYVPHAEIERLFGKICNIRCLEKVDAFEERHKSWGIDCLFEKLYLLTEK
Chain of UniProt Q7Z392 (Q7Z392 whole entry): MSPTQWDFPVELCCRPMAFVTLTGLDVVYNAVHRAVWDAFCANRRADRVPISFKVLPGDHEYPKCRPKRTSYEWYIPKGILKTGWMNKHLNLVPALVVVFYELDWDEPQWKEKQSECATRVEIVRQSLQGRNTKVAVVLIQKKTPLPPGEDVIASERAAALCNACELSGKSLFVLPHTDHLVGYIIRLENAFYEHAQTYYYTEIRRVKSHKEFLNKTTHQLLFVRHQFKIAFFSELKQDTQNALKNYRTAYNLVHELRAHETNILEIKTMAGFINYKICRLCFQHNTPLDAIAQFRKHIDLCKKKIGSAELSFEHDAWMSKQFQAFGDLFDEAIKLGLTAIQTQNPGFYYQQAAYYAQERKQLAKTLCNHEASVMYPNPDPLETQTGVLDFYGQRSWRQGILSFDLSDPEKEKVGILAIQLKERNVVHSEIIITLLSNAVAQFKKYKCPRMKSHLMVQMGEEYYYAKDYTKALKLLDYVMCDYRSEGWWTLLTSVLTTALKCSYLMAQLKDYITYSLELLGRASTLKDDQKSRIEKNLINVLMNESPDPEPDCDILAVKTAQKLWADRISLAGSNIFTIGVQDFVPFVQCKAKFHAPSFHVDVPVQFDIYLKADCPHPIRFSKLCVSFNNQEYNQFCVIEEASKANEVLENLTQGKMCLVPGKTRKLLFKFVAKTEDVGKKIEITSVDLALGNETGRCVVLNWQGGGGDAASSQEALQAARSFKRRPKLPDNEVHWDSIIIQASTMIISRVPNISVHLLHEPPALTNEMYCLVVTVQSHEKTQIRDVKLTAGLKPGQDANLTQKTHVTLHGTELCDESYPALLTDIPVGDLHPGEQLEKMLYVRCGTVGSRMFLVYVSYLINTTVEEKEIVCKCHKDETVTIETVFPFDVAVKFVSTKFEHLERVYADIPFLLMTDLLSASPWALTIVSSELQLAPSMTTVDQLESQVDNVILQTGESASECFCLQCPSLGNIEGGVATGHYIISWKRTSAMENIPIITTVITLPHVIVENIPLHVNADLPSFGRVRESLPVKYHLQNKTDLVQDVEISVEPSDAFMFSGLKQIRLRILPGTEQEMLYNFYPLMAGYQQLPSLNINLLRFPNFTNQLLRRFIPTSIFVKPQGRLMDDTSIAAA
Chain of UniProt Q96S44 (Q96S44 whole entry): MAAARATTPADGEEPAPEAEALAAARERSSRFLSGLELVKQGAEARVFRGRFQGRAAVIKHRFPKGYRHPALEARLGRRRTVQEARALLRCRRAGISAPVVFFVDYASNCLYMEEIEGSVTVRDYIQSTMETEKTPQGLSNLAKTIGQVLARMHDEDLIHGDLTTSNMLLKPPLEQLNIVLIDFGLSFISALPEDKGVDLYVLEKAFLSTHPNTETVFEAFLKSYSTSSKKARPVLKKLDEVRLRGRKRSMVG

| Target | thermal stability z-score [1, 3] | thermal stability z-score ([1]; arsenate co-treatment: none) | thermal stability z-score [2] |
| --- | --- | --- | --- |
| TOR1B (UniProt O14657) | -2.23 | -2.79 | 1.11 |
| TOR3A (UniProt Q9H497) | -1.02 | -0.712 | 0.553 |
| TOX4 (UniProt O94842) | -0.0663 | -0.0734 | -0.108 |
| TP53BP1 (UniProt Q12888) | 1.4 | 0.891 | -0.0759 |
| TP53BP2 (UniProt Q13625) | -1.06 | 0.188 | -1.29 |
| TP53I3 (UniProt Q53FA7) | 0.135 | -0.155 | -0.359 |
| TP53RK (UniProt Q96S44) | 0.0309 | -0.743 | -0.367 |
| TPBG (UniProt Q13641) | -0.727 | -0.884 | -0.766 |
| TPCN1 (UniProt Q9ULQ1) | 0.0393 | -0.00808 | -0.538 |
| TPD52 (UniProt P55327) | 2.04 | 2.1 | 1.35 |
| TPD52L1 (UniProt Q16890) | 0.471 | 0.545 | 0.237 |
| TPD52L2 (UniProt O43399) | 1.01 | 1.19 | 0.621 |
| TPI1 (UniProt P60174) | 0.408 | 0.0882 | -0.48 |
| TPM1 (UniProt P09493) | 0.347 | 0.422 | -0.151 |
| TPM2 (UniProt P07951) | 0.624 | 0.462 | -0.068 |
| TPM3 (UniProt P06753) | 0.676 | 0.821 | 0.131 |
| TPM4 (UniProt P67936) | 0.31 | 0.407 | -0.0802 |
| TPMT (UniProt P51580) | 0.308 | 0.31 | -0.162 |
| TPP1 (UniProt O14773) | -0.299 | -0.137 | -0.0975 |
| TPP2 (UniProt P29144) | 0.657 | 0.44 | 0.194 |
| TPPP (UniProt O94811) | -0.836 | 0.123 | -0.479 |
| TPR (UniProt P12270) | 2.13 | 1.1 | -2.19 |
| TPRA1 (UniProt Q86W33) | -0.68 | -0.251 | 0.19 |
| TPRG1L (UniProt Q5T0D9) | -0.302 | 0.421 | 0.921 |

| Target | thermal stability z-score [1, 3] | thermal stability z-score ([1]; arsenate co-treatment: none) | thermal stability z-score [2] |
| --- | --- | --- | --- |
| TPRKB (UniProt Q9Y3C4) | -0.134 | -0.764 | -0.881 |
| TPT1 (UniProt P13693) | 0.494 | 0.196 | -0.445 |
| TPX2 (UniProt Q9ULW0) | 0.967 | 0.322 | 0.448 |
| TRA2B (UniProt P62995) | 2.37 | -0.56 | -0.649 |
| TRABD2A (UniProt Q86V40) | -0.806 | -1.21 | 0.517 |
| TRABD (UniProt Q9H4I3) | 0.366 | 0.172 | -0.0912 |
| TRADD (UniProt Q15628) | 0.0371 | 0.0442 | -0.497 |
| TRAF2 (UniProt Q12933) | -0.41 | -0.458 | -4.2 |
| TRAF3IP1 (UniProt Q8TDR0) | 0.519 | 0.373 | 0.694 |
| TRAF3IP2 (UniProt O43734) | -0.106 | -0.159 | -0.155 |
| TRAF4 (UniProt Q9BUZ4) | -0.818 | -0.748 | -4.33 |
| TRAF6 (UniProt Q9Y4K3) | -0.0771 | -0.0851 | -0.00689 |
| TRAF7 (UniProt Q6Q0C0) | 0.0114 | -0.686 | -1.01 |
| TRAFD1 (UniProt O14545) | -1.34 | -0.816 | -2.25 |
| TRAM1 (UniProt Q15629) | -0.499 | -1.11 | 0.968 |
| TRAP1 (UniProt Q12931) | -1.2 | 0.188 | -0.477 |
| TRAPPC1 (UniProt Q9Y5R8) | 0.425 | 0.512 | 0.484 |
| TRAPPC2L (UniProt Q9UL33) | -0.426 | 0.338 | -0.119 |
| TRAPPC3 (UniProt O43617) | 0.589 | -0.0881 | 0.422 |
| TRAPPC4 (UniProt Q9Y296) | -0.271 | 0.0129 | -0.0725 |
| TRAPPC5 (UniProt Q8IUR0) | 1.28 | -0.246 | 0.00376 |
| TRAPPC6B (UniProt Q86SZ2) | -0.428 | -1.19 | -0.511 |
| TRAPPC8 (UniProt Q9Y2L5) | 0.257 | 0.348 | 0.311 |
| TRAPPC9 (UniProt Q96Q05) | 0.0964 | -0.258 | 0.167 |

| Target | thermal stability z-score [1, 3] | thermal stability z-score ([1]; arsenate co-treatment: none) | thermal stability z-score [2] |
| --- | --- | --- | --- |
| TRAPPC10 (UniProt P48553) | 0.191 | 0.411 | 0.381 |
| TRAPPC11 (UniProt Q7Z392) | -0.549 | -1.8 | -0.537 |
| TRAPPC12 (UniProt Q8WVT3) | -0.757 | -1.04 | 0.0727 |
| TRAPPC13 (UniProt A5PLN9) | 0.252 | -0.0347 | -0.371 |
| TREX1 (UniProt Q9NSU2) | -0.5 | -0.0932 | -2.07 |
| TRIM3 (UniProt O75382) | 0.012 | 0.061 | -0.044 |
| TRIM4 (UniProt Q9C037) | -0.218 | 0.0313 | -0.143 |
| TRIM5 (UniProt Q9C035) | 0.224 | 0.183 | 0.259 |
| TRIM11 (UniProt Q96F44) | -0.68 | -1.71 | -1.05 |
| TRIM16 (UniProt O95361) | -0.0466 | -0.0815 | -0.0294 |
| TRIM21 (UniProt P19474) | -0.677 | -0.149 | 0.307 |
| TRIM24 (UniProt O15164) | 0.0835 | 0.184 | -0.334 |
| TRIM25 (UniProt Q14258) | -0.86 | -0.867 | -0.882 |
| TRIM26 (UniProt Q12899) | -0.368 | -0.0684 | 0.295 |
| TRIM27 (UniProt P14373) | 0.641 | -0.0794 | -0.874 |
| TRIM28 (UniProt Q13263) | -0.138 | 0.0166 | -1.49 |
| TRIM29 (UniProt Q14134) | -0.0886 | 0.185 | -0.177 |
| TRIM32 (UniProt Q13049) | -0.257 | -0.125 | -3.56 |
| TRIM33 (UniProt Q9UPN9) | 0.838 | 1.24 | -0.3 |
| TRIM38 (UniProt O00635) | -0.0725 | -0.0917 | -0.447 |
| TRIM44 (UniProt Q96DX7) | 0.0927 | -0.409 | 0.419 |
| TRIM47 (UniProt Q96LD4) | -0.148 | -0.0936 | 0.944 |
| TRIM56 (UniProt Q9BRZ2) | -0.0694 | -0.839 | -3.98 |

From the supplement of paper PMC12463676, “Small-molecule dissolution of stress granules by redox modulation benefits ALS models” (Nature Chemical Biology, 2025)
